Among the data in patent US20200216441A1, “PESTICIDALLY ACTIVE HETEROCYCLIC DERIVATIVES WITH SULFUR CONTAINING SUBSTITUENTS” (SYNGENTA PARTICIPATIONS AG, priority 2017, published 2020) are mortality, percent effect (mortality or growth inhibition) and melting point values, retold here.

For data set [1], the system named is Spodoptera littoralis (Egyptian Cotton Leaf Worm). Put plainly: whole plant or invertebrate. The following applies: in Gossypium barbadense, foliar, 72 h, read-out: control (mortality, anti-feeding effect, growth inhibition).
Data set [2] has as its system Tetranychus urticae (Two-Spotted Spider Mite). To be noted: foliar, 192 h.
Data set [3] deals with Myzus persicae (Green Peach Aphid). In words: whole plant or invertebrate. To be noted: foliar, 144 h.
Data set [4] concerns Diabrotica Balteata (Corn Root Worm). Put plainly: Diabrotica balteata (Corn Root Worm). To be noted: in Zea mays, 96 h, read-out: effect in at least one of the two categories (mortality or growth inhibition).
Data set [5] has as its system Euschistus heros (Neotropical Brown Stink Bug). Put plainly: whole plant or invertebrate. Format: in vivo. To be noted: 120 h, application rate of 200 ppm, N2 nymphs on sprayed soybean leaves, 5 days after infestation, read-out: effect in at least one of the two categories (mortality or growth inhibition).
The test system of data set [6] is Bemisia tabaci (Cotton White Fly). To be noted: in Gossypium hirsutum, foliar, 144 h.
The test system of data set [7] is Plutella xylostella (Diamond Back Moth). Put plainly: whole plant or invertebrate. Format: in vivo. The following applies: 120 h, application rate of 200 ppm, L2 larvae on treated artificial diet, 5 days after infestation, read-out: effect in at least one of the two categories (mortality or growth inhibition).
Data set [8] has as its system Myzus persicae (Green Peach Aphid). Put plainly: whole plant or invertebrate. In kind it is in vivo. The following applies: 144 h, test rate of 24 ppm, systemic, roots of infested pea seedlings in test solution, 6 days.
Data set [9] relates to Frankliniella occidentalis (Western Flower Thrips). To be noted: foliar, 168 h.

Consider `CCS(=O)(=O)c1cc(OC(C)C)cnc1-c1nc2cc(SC(F)(F)F)ncc2n1C` [Compound P71, 2-(3-ethylsulfonyl-5-isopropoxy-2-pyridyl)-3-methyl-6-(trifluoromethylsulfanyl)imidazo[4,5-c]pyridine], for which the mortality at 200 ppm in data set [1], in data set [2], in data set [3], in data set [4] and in [6] was no less than 80% each time. For the same compound, the percent effect (mortality or growth inhibition) at 200 ppm in [5] and in [7] was no less than 80% in each case.

Consider `CCS(=O)(=O)c1cc(OC(C)(C)C)cnc1-c1nc2cc(C(F)(F)F)ncc2n1C` [Compound P5, 2-(5-tert-butoxy-3-ethylsulfonyl-2-pyridyl)-3-methyl-6-(trifluoromethyl)imidazo[4,5-c]pyridine], for which the mortality at 200 ppm in data set [1], in [2], in data set [3], in data set [4] and in data set [6] was no less than 80% throughout. The compound further yielded a mortality at 24 ppm in data set [8] of no less than 80%. In addition, the percent effect (mortality or growth inhibition) at 200 ppm in data set [5] and in data set [7] was no less than 80% in each case.

`CCS(=O)(=O)c1cc(OC(C)C)cnc1-c1nc2cc([S+]([O-])C(F)(F)F)ncc2n1C` (centres unmarked) [Compound P60, 2-(3-ethylsulfonyl-5-isopropoxy-2-pyridyl)-3-methyl-6-(trifluoromethylsulfinyl)imidazo[4,5-c]pyridine]: the mortality at 200 ppm in [9], in data set [1], in [2], in data set [3] and in data set [6] was no less than 80% throughout. In [8], this compound came in with a mortality at 24 ppm of no less than 80%. The percent effect (mortality or growth inhibition) at 200 ppm in data set [5] and in data set [7] was no less than 80% each time.

As for `CCS(=O)(=O)c1cc(OC(C)(F)F)ccc1-c1nc2cc(C(F)(F)F)ncc2n1C`, the melting point is 142 to 144 °C.

For the compound `CCS(=O)(=O)c1cc(OC(C)C(=O)OC)cnc1-c1nc2cc(C(F)(F)F)ncc2n1C` (centres unmarked), the melting point is 131 to 133 °C.

Regarding `CCSc1cc(OC(C)(C)C(=O)O)cnc1-c1nc2cc(C(F)(F)F)ncc2n1C`, the melting point lay within 161 to 163 °C.

`CCS(=O)(=O)c1cc(OC(SC)C(N)=O)cnc1-c1nc2cc(C(F)(F)F)ncc2n1C` (centres unmarked): the melting point was 142 to 144 °C.

`CCS(=O)(=O)c1cc(OCCSC)ccc1-c1nc2cc(C(F)(F)F)ncc2n1C` [Compound P104, 2-[2-ethylsulfonyl-4-(2-methylsulfanylethoxy)phenyl]-3-methyl-6-(trifluoromethyl)imidazo[4,5-c]pyridine]: the mortality at 200 ppm in [2], in [3], in data set [4] and in data set [6] was no less than 80% in each case. This compound showed a mortality at 24 ppm in [8] of no less than 80%. The percent effect (mortality or growth inhibition) at 200 ppm in data set [5] was no less than 80%.

Consider `CCS(=O)(=O)c1cc(OC(C)(C)C(F)(F)F)cnc1-c1nc2cc(C(F)(F)F)ncc2n1C` [Compound P76, 2-[3-ethylsulfonyl-5-(2,2,2-trifluoro-1,1-dimethyl-ethoxy)-2-pyridyl]-3-methyl-6-(trifluoromethyl)imidazo[4,5-c]pyridine], for which the mortality at 200 ppm in [1], in data set [2], in data set [3], in [4] and in data set [6] was no less than 80% each time. Besides, the percent effect (mortality or growth inhibition) at 200 ppm in [5] and in data set [7] was no less than 80% throughout.

`CCS(=O)(=O)c1cc(OCC2(C#N)CC2)cnc1-c1nc2cc(C(F)(F)F)ncc2n1C` [Compound P79, 1-[[5-ethylsulfonyl-6-[3-methyl-6-(trifluoromethyl)imidazo[4,5-c]pyridin-2-yl]-3-pyridyl]oxymethyl]cyclopropanecarbonitrile]: the mortality at 200 ppm in data set [1], in [2], in data set [3], in [4] and in data set [6] was no less than 80% each time. The same compound gave a mortality at 24 ppm in data set [8] of no less than 80%. Also, the percent effect (mortality or growth inhibition) at 200 ppm in [5] and in data set [7] was no less than 80% each time.

As to `CCS(=O)(=O)c1cc(OCC(C)(F)F)cnc1-c1nc2cc(C(F)(F)F)ncc2n1C` [Compound P41, 2-[5-(2,2-difluoropropoxy)-3-ethylsulfonyl-2-pyridyl]-3-methyl-6-(trifluoromethyl)imidazo[4,5-c]pyridine], the mortality at 200 ppm in data set [9], in [1], in [3], in [4] and in [6] was no less than 80% in each case. This compound registered a mortality at 24 ppm in data set [8] of no less than 80%. Besides, the percent effect (mortality or growth inhibition) at 200 ppm in data set [5] and in data set [7] was no less than 80% throughout.

Regarding `CCS(=O)(=O)c1cc(OC(C)(F)F)cnc1-c1nc2cc(C(F)(F)F)ncc2n1C` [Compound P78, 2-[5-(1,1-difluoroethoxy)-3-ethylsulfonyl-2-pyridyl]-3-methyl-6-(trifluoromethyl)imidazo[4,5-c]pyridine], the mortality at 200 ppm in data set [9], in data set [1], in data set [3], in data set [4] and in data set [6] was no less than 80% throughout. Further, in data set [8], the mortality at 24 ppm is no less than 80%. For the same compound, the percent effect (mortality or growth inhibition) at 200 ppm in data set [5] and in [7] was no less than 80% in each case.

`CCS(=O)(=O)c1cc(OC(C)(C)C(C)=O)cnc1-c1nc2cc(C(F)(F)F)ncc2n1C`: the melting point was in the range of 138 to 140 °C.

`CCS(=O)(=O)c1cc(OC(C(=O)OC)S(C)(=O)=O)cnc1-c1nc2cc(C(F)(F)F)ncc2n1C` (centres unmarked) had a melting point of 122 to 124 °C.

Regarding `CCS(=O)(=O)c1cc(OC2CCC2)cnc1-c1nc2cc(C(F)(F)F)ncc2n1C` [Compound P62, 2-[5-(cyclobutoxy)-3-ethylsulfonyl-2-pyridyl]-3-methyl-6-(trifluoromethyl)imidazo[4,5-c]pyridine], the mortality at 200 ppm in data set [1], in data set [2], in [3], in [4] and in data set [6] was no less than 80% each time. The percent effect (mortality or growth inhibition) at 200 ppm in [5] and in data set [7] was no less than 80% in each case.

Consider `CCS(=O)(=O)c1cc(OC(SC)C(=O)OC)cnc1-c1nc2cc(C(F)(F)F)ncc2n1C` (centres unmarked), for which the melting point fell in the range of 94 to 96 °C.

As to `CCS(=O)(=O)c1cc(OC(C)(C)CC#N)cnc1-c1nc2cc(C(F)(F)F)ncc2n1C` [Compound P47, 3-[[5-ethylsulfonyl-6-[3-methyl-6-(trifluoromethyl)imidazo[4,5-c]pyridin-2-yl]-3-pyridyl]oxy]-3-methyl-butanenitrile], the mortality at 200 ppm in data set [2], in data set [3], in [4] and in data set [6] was no less than 80% in each case. This compound had a mortality at 24 ppm in data set [8] of no less than 80%. For the same compound, the percent effect (mortality or growth inhibition) at 200 ppm in [5] and in [7] was no less than 80% in each case.

As for `CCS(=O)(=O)c1cc(OC(C#N)SC)cnc1-c1nc2cc(C(F)(F)F)ncc2n1C` (centres unmarked), the melting point lay in the range of 204 to 206 °C.

For `CCS(=O)(=O)c1cc(OC(F)(F)CBr)ccc1-c1nc2cc(C(F)(F)F)ncc2n1C`, the melting point lay within 137 to 139 °C.

Turning to `CCS(=O)(=O)c1cc(OCSC)cnc1-c1nc2cc(C(F)(F)F)ncc2n1C` [Compound P10, 2-[3-ethylsulfonyl-5-(methylsulfanylmethoxy)-2-pyridyl]-3-methyl-6-(trifluoromethyl)imidazo[4,5-c]pyridine], the mortality at 200 ppm in [9], in data set [1], in data set [3], in data set [4] and in [6] was no less than 80% each time. In data set [8], this compound came in with a mortality at 24 ppm of no less than 80%. Besides, the percent effect (mortality or growth inhibition) at 200 ppm in [5] is no less than 80%.

In the case of `CCS(=O)(=O)c1cc(OC(C)(C)C(=O)O)cnc1-c1nc2cc(C(F)(F)F)ncc2n1C`, the melting point lay within 242 to 244 °C.

`CCOC(=O)C(C)(C)Oc1cnc(-c2nc3cc(C(F)(F)F)ncc3n2C)c(S(=O)(=O)CC)c1` came in with a melting point of 145 to 147 °C.

As a reminder, the mortality is the percentage killed. The melting point is the temperature of the solid-liquid transition.
